Reference: patent publication US10155742B2, “Halofuginol derivatives and their use in cosmetic and pharmaceutical compositions” (President and Fellows of Harvard College, priority 2012, dated 2018)
“Also recorded” adds a separate entry of the source. Where two headings read alike, the source gives them in different places.

Assays:
[1] = tested on: translation in rabbit reticulocyte lysate (RRL); assay: In vitro translation assay in rabbit reticulocyte lysate (RRL); conditions: for inhibition of translation of luciferase RNA in RRL: luminescence assay, FIG. 2A/2B
[2] = target: T1, ProRS (amino acids 998-1513 of human EPRS) (Homo sapiens, UniProt P07814); assay: [3H]-HFol binding to immobilized ProRS; conditions: for inhibition of [3H]-HFol binding to ProRS: FIG. 4A
T1 construct: Purified 6-his tagged ProRS (amino acids 998-1513 of human EPRS) was immobilized on N-NTA beads; made in house; host or cells: E. coli BL21(DE3), plasmid pKS509
T1 sequence (P07814 998-1512 limits assumed): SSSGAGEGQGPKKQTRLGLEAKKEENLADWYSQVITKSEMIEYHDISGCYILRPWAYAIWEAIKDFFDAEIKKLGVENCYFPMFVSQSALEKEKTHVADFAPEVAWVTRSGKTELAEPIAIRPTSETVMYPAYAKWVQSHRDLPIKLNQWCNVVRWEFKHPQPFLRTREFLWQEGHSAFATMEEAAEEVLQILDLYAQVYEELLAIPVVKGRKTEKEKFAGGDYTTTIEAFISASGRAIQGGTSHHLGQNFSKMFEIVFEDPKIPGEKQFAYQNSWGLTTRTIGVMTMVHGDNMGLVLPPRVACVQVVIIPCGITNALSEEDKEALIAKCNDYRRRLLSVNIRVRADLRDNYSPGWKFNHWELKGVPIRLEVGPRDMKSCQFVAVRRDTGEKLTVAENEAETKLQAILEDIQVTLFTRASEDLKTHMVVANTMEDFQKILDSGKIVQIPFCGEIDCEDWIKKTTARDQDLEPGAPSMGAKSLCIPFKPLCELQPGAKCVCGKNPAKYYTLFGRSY
Protocol: B) [^3H]-HFol binding was assayed as described above in the presence of indicated concentrations of proline. […] IMR90 lung fibroblasts were treated with a siRNAs directed against EPRS (Dharmacon) or a control siRNA mixture for 48 hours, and then treated with HF for 2 hours (pGCN2) and examined for EPRS protein levels, GCN2 total protein and phospho-GCN2 by Western blot. D) EPRS depleted IMR90 cells were compared to control cells with respect to HF induction of the AAR marker CHOP by Q-PCR. Equal concentrations of total cellular protein were loaded in each Western blot lane. CHOP expression was standardized to expression of phosphoglycerate kinase 1 (PGK1) and glyceraldehyde-3-phosphate-dehydrogenase (GAPDH). Data shown are representative of three separate experiments.
Prolyl sulfamoyl adenosine (ProSAd) or alanyl sulfamoyl adenosine (AlaSAd), analogs of the corresponding aminoacyl adenylate, were coincubated with [^3H]-HFol as in FIG. 2. […] Binding of [^3H]-HFol was assayed as in FIG. 3, except that the nucleotide type and concentration was varied as indicated.
To examine HF binding to ProRS, ^3H HFol was synthesized by American Radiochemicals (St. Louis) by reduction of MAZ1310 (3) at the ketone with NaB^3H4, followed by removal of the Boc protecting group with 10% trifluoroacetic acid in dichloromethane, and HPLC purification of the ^3H HFol. 100 nM ^3H HFol was incubated with ProRS immobilized on Ni-NTA beads (Pierce) in 50 mM Tris pH 7.5, 5 mM MgCl2, 20 mM Imidazole, 1 mM DTT, 10% glycerol, and nucleotides, proline, or HF derivatives at room temperature for 10 minutes as indicated. After incubation, beads were washed twice with ice-cold wash buffer (50 mM Tris 7.5; 20 mM Imidazole; 1 mM DTT, 20% glycerol). ^3H HFol bound after washing was measured by liquid scintillation counting. Ni-NTA beads incubated with E. coli extracts lacking tagged ProRS were used as a background reference in all experiments.

P. falciparum (Dd2) = assay: In vitro P. falciparum viability assay with excess proline; type: cell-based, Plasmodium falciparum; conditions: Dd2 strain in red blood cells, relative to unmodified RPMI, FIG. 23
Protocol: The activity of halofuginone and amodiaquine as inhibitors of P. falciparum growth was tested in erythrocytes in RPMI with or without excess amino acids as indicated, and IC50 values were normalized to IC50 values obtained under standard conditions using unmodified RPMI (numbers in bold). The absolute IC50 values for halofuginone and amodiaquine for RPMI are reported in parentheses. Fold amino acid indicated (e.g., “5×”) is relative to the concentration of the respective amino acid in RPMI. Fold concentration of D-Pro and L-Orn are relative to L-Pro.
In vitro potency against P. falciparum (DD2) was assessed using a modified version of the method of Plouffe and coworkers (Plouffe et al. Proc. Natl. Acad. Sci. USA 105:9059-64 (2008)). Parasites were cultured in the presence of drug in RPMI (Sigma) containing 4.16 mg/ml Albumax in a total volume of 50 μl at a 2.5% hematocrit and an initial parasitemia of 0.3% in black Greiner GNF clear-bottom plates. Cultures were incubated 72 hr at 37° C. under […], 4% CO2 and 3% O2. At the end of the incubation, SYBR green was added to a dilution of 1:10,000 and plates were stored overnight (or until ready to be read) at −80° C. Just before reading, plates were centrifuged at 700 rpm and fluorescence was read using 480 nm excitation and 530 nm emission frequencies. Compound concentrations that inhibit parasite replication reduce the fluorescence intensity of SYBR green bound to parasite DNA.

[3] = target: T2, prolyl tRNA synthetase domain of human EPRS (ProRS) (Homo sapiens, UniProt P07814)
T2 sequence (P07814 998-1512 limits assumed): T1 sequence (P07814 998-1512 limits assumed)
Protocol: Activity of the Prolyl tRNA synthetase domain of EPRS (ProRS) was measured as ^3H Pro incorporation into the charged tRNA pool. […] Purified enzyme was visualized as a single band by Laemmli gel electrophoresis/Coomassie staining.
Purified enzyme was visualized as a single band by Laemmli gel electrophoresis/Coomassie staining. […] In preliminary experiments, the assay was established to be linear over the time (6 min) and conditions used (30 degrees, 2 mM ATP, 1 μg/μl total tRNA purified from rabbit liver).
For the rapid, quantitative isolation of aminoacylated tRNA^pro from synthetase reaction mixtures, reactions were stopped with 100 μl of ice cold 20 mM MOPS pH6.2, 200 mM NaCl, 10 mM EDTA, 30% Glycerol and placed on ice. Samples were added to 15 μl of packed Mono Q HP beads (GE Healthcare) equilibrated in the same buffer. Samples were incubated with beads on ice for 10 min, beads were pelleted by 5 sec centrifugation in a tabletop microfuge and washed 3× 1 ml of wash buffer (20 mM MOPS pH6.2, 50 mM NaCl), and recovered pellets counted in a liquid scintillation counter. Background binding of ^3H Pro to beads (using reaction mix with either no enzyme added or no tRNA added) was negligible (20-40 cpm).

[4] = tested on: primary human prostate stromal (hPrSc) cells, s100a4; assay: S100A4 mRNA in primary human prostate stromal cells; type: cell-based; conditions: with or without TGF 10 ng/ml, FIG. 28
Protocol: (§1) Primary human prostate stromal (hPrSc) cells were left in low-serum media (0.2%) for 24 hours, and treated consecutively twice for 48 hours with or without tumor-growth factor beta (TGF; 10 ng/ml), halofuginone (HF) or halofuginol (HFol) at the concentrations indicated. Relative mRNA levels of the fibrosis/tissue invasion marker s100a4 was measured by quantitative real-time PCR using glyceraldehyde-3-phosphate dehydrogenase (GAPDH) as internal control.

[5] = tested on: primary human prostate stromal (hPrSc) cells, col1a1; assay: Type I collagen (col1a1) mRNA in primary human prostate stromal cells; type: cell-based; conditions: treated twice for 48 hours, FIG. 27
Protocol: as §1, with “hours,” for “hours with or without tumor-growth factor beta (TGF; 10 ng/ml),”, “myofibroblastic markeralpha 1 collagen type 1 (col1a1)” for “fibrosis/tissue invasion marker s100a4”

[6] = tested on: Th17 cell differentiation (primary murine CD4+ CD25- T cells); assay: Th17 differentiation of T cells; type: cell-based, mouse; conditions: 6 nM (3 ng/mL) borrelidin, FIG. 19
Protocol: A) Primary murine CD4^+ CD25^− T cells were activated through the T-cell receptor in Th17 polarizing conditions (Sundrud et al. Science 324:1334-8 (2009)) in the presence of either 10 nM MAZ1310 or HF and the following amino acid supplements: 10× concentration of essential (EAA) or non-essential (NEAA) amino acids mixtures (Biowhittaker or Invitrogen, respectively), or 10× concentrations (1 mM) of indicated individual amino acids. Data are presented as mean percentage of Th17 (IL-17+ IFNg−) cells +/−SD from triplicate wells. B) Th17 differentiation was assayed as described above, in the absence or presence of HF or borrelidin, with or without 1 mM threonine or proline supplementation. C) MEFs were treated with or without HF (50 nM) and/or proline (2 mM) for 4 hours (CHOP, S100A4) or 24 hours (ColIA1, Col1A2). mRNA expression was normalized to expression of TBP and is shown relative to untreated control. […] Confidence intervals (p-value) for the effect of HF alone versus HF+Pro were determined using a two-tailed Student's t test. […] D) Cells were pre-incubated for 24 hours with HF and proline as indicated, and secretion of Type I procollagen was measured after 24 hours in conditioned medium of cells plated by Western blot and quantitated using Image J software (top panel). Total protein synthesis was measured as TCA-precipitable ^35S in a scintillation counter (bottom panel). […]

[7] = inhibitor 1 μM, anti-myc Western blot, FIG. 2C

`O=C(C[C@@H]1NCCC[C@H]1O)Cn1cnc2cc(Br)c(Cl)cc2c1=O` (single isomer, unassigned) [2S,3R isomer of HF] was tested, and the “inhibition of translation of luciferase RNA in RRL” value (shortened to “inhibition of translation … in RRL”) [1] was “no activity”.

With `C[C@H](N)C(=O)NS(=O)(=O)OC[C@H]1O[C@@H](n2cnc3c(N)ncnc32)[C@H](O)[C@@H]1O` [AlaSAd, alanyl sulfamoyl adenosine] the “inhibition of [3H]-HFol binding to ProRS” value ([2]; 50 nM competitor) was “partially inhibited”.

With `O=C(C[C@H]1NCCC[C@@H]1O)Cn1cnc2ccccc2c1=O` [FF, febrifugine] the “fold increase of effective IC50 on addition of 5× proline” value (P. falciparum (Dd2)) was about 5 fold, the “translation of Nopropep (proline-free polypeptide)” value [1, 7] was “no effect” and the “translation of Propep (proline dipeptide containing polypeptide)” value [1, 7] was “prevent translation”. The “inhibition of translation … in RRL” value [1] was “inhibited”.

With `O=c1c2cc(Cl)c(Br)cc2ncn1C[C@@H](O)C[C@H]1NCCC[C@@H]1O` [HFolA, halofuginol] the “inhibition of ProRS activity” value ([3]; 3H Pro incorporation into tRNA) was “active; also recorded: inhibits; also recorded: potent inhibitor”.

For `O=c1c2cc(Cl)c(Br)cc2ncn1C[C@H](O)C[C@H]1NCCC[C@@H]1O` [HFolA, halofuginol], the “inhibition of ProRS (EPRS) activity” value ([3]; 100 μM Pro, FIG. 13) was “inhibits; also recorded: potency similar to the parent compound”, the “expression of the activated fibroblast marker S100A4” value [4] was “inhibit” and the “Type 1 collagen expression in fibroblasts in culture” value [5] was “inhibit”.

In the case of `CC(C)(C)OC(=O)N1CCC[C@H](O)[C@H]1CC(=O)Cn1cnc2cc(Br)c(Cl)cc2c1=O` [MAZ1310], the “inhibition of ProRS activity” value ([3]; 14C Proline used as trace label, FIG. 9) is reported as “does not block; also recorded: no inhibitory effect” and the “inhibition of translation … in RRL” value [1] is reported as “no activity”.

With `Nc1ncnc2c1ncn2[C@@H]1O[C@H](COS(=O)(=O)NC(=O)[C@@H]2CCCN2)[C@@H](O)[C@H]1O` [ProSAd, 5-O—[N-(L-prolyl)-sulfamoyl]adenosine] the “inhibition of [3H]-HFol binding to ProRS” value ([2]; 10 nM competitor) was “inhibited”.

`[3H][C@@](O)(C[C@H]1NCCC[C@@H]1O)Cn1cnc2cc(Br)c(Cl)cc2c1=O` [[^3H]-HFol] was tested, and the “direct binding to immobilized ProRS” value ([2]; 5 mM MgCl2, 2 mM ATP, 10 min RT) was “bound directly”.

With `CCN(CC)Cc1cc(Nc2ccnc3cc(Cl)ccc23)ccc1O` [amodiaquine] the “fold increase of effective IC50 on addition of 5× proline” value (P. falciparum (Dd2)) was “did not affect”.

With `C[C@@H]1C[C@H](C)C[C@H](C)[C@@H](O)CC(=O)O[C@H]([C@@H]2CCC[C@H]2C(=O)O)C/C=C/C=C(/C#N)[C@H](O)[C@@H](C)C1` [borrelidin] the “inhibition of Th17 cell differentiation” value [6] was “selectively inhibits” and the “inhibition of Th17 cell differentiation” value ([6]; listed as Borrelidin) was “inhibited”.
